US7601745B2, “Heterocyclic NF-kB inhibitors” (4SC AG, priority 2004, dated 2009)

system: A549-NF-κB-SEAP reporter cells; test: Inhibition of NF-κB-induced inflammation ([…] NINA Instant Assay, SEAP reporter); type: cell-based; settings: NF-κB inflammation assay
Excerpt: For the determination of anti-inflammatory activity of the compounds the […]® NINA Instant Assay from Cell Culture Service GmBH was used. This assay is based on recombinant A549-NF-κB-SEAP reporter cells preseeded in 96-well flat bottom plates. As the transfected reportergen for SEAP (secreted embryonic alkaline phosphatase) is under transcriptional control of a NF-κB-responsive element, the expression of this reporter is activated upon stimulation with TNF-α. SEAP secretion into the culture supernatant can be detected by the chemiluminescent substrate CSPD®. Test compounds that inhibit the NF-κB activation show reduced SEAP activity and reduced luminescent readout.
Following 18 h of reactivation at 37° C., 5% CO2 and 90% relative humidity, the cells were incubated with 0.01 up to 100 μM of test compound for 4.5 h before stimulation with 2 ng/ml TNF-α. After stimulation with TNF-α for 22 h endogenous phosphatases were inactivated and CSPD® substrate was supplied for 40 min. SEAP activity then was quantified by measuring luminescence as relative light units (RLU) using a Tecan Ultra reader. Each data point was recorded in quadruplicates and EC50 values were calculated via fitting function and the Microsoft Excel Solver.

`N=C(NC(=O)c1csc(C2CCN(C(=O)c3ccccc3OC(F)(F)F)CC2)n1)Nc1nc2ccccc2[nH]1` [compound 36] was tested. Which “Biological activity (inhibition in the NF-κB inflammation assay)” value did it give?
The value was “+++ (“+++” stands for 90-100% inhibition)”.

`N=C(NC(=O)c1csc(N2CCN(Cc3ccccc3)CC2)n1)Nc1nc2ccccc2[nH]1` [compound 30] was tested. Which “Biological activity (inhibition in the NF-κB inflammation assay)” value did it give?
The value was “+++ (“+++” stands for 90-100% inhibition)”.

Which “Biological activity (inhibition in the NF-κB inflammation assay)” value does the source give for `N=C(NC(=O)c1csc(NC(=O)c2ccccc2C2CCCCC2)n1)Nc1nc2ccccc2[nH]1` [compound 45] here?
The value was “+++ (“+++” stands for 90-100% inhibition)”.

For `CCCS(=O)(=O)c1ccc2[nH]c(NC(=O)c3csc(C4CCN(C(=O)c5ccccc5OC(F)(F)F)CC4)n3)nc2c1` [compound 52], which “Biological activity (inhibition in the NF-κB inflammation assay)” value is on record?
The value was “+++ (“+++” stands for 90-100% inhibition)”.

For `NC(=Nc1nc2ccccc2[nH]1)NC(=O)c1csc(NC(=O)c2c(F)cccc2F)n1` [compound 57], which “Biological activity (inhibition in the NF-κB inflammation assay)” value is on record?
The value was “+++ (“+++” stands for 90-100% inhibition)”.

For `Cc1cc2nc(NC(=O)c3coc(NC(=O)c4ccccc4OC(F)(F)F)n3)[nH]c2cc1C` [compound 40], which “Biological activity (inhibition in the NF-κB inflammation assay)” value is on record?
The value was “+++ (“+++” stands for 90-100% inhibition)”.

same assay, conditions: compounds of formula (I); TNF-α stimulated reporter cells; test concentration not given

For `O=C(c1csc(C2CCN(Cc3ccc(Br)cc3)CC2)n1)N1CCN(c2cccc(C(F)(F)F)c2)CC1` [compound 174], which “Biological activity (NF-κB inflammation assay, inhibition)” value is on record?
Its value is “+ (“+” stands for 50-80% inhibition)”.

`O=C(c1csc(C2CCN(c3ccc(OC(F)(F)F)cc3)CC2)n1)N1CCN(c2cccc(C(F)(F)F)c2)CC1` [compound 154] was tested. Which “Biological activity (NF-κB inflammation assay, inhibition)” value did it give?
Its value is “+ (“+” stands for 50-80% inhibition)”.

How did the “Biological activity (NF-κB inflammation assay, inhibition)” value turn out when `O=C(c1csc(C2CCN(Cc3ccc(C(F)(F)F)cc3)CC2)n1)N1CCN(c2cccc(C(F)(F)F)c2)CC1` [compound 169] was run?
Its value is “+ (“+” stands for 50-80% inhibition)”.

With `O=C(c1csc(C2CCN(C(=O)c3ccccc3OC(F)(F)F)CC2)n1)N1CCN(c2cccc(C(F)(F)F)c2)CC1` [compound 223] as the molecule, how does the “Biological activity (NF-κB inflammation assay, inhibition)” value read?
Its value is “+++ (“+++” stands for 90-100% inhibition)”.

`COc1nc(OC)nc(N2CCN(C(=O)c3csc(C4CCN(Cc5ccccc5)CC4)n3)CC2)n1` [compound 120] was tested. Which “Biological activity (NF-κB inflammation assay, inhibition)” value did it give?
Its value is “+ (“+” stands for 50-80% inhibition)”.

`COc1ccccc1N1CCN(C(=O)c2csc(C3CCN(C(=O)Cc4ccc(F)cc4)CC3)n2)CC1` [compound 229] was tested. Which “Biological activity (NF-κB inflammation assay, inhibition)” value did it give?
The value was “+ (“+” stands for 50-80% inhibition)”.

For `O=C(CCC1CCCC1)N1CCC(c2nc(C(=O)N3CCN(c4cccc(C(F)(F)F)c4)CC3)cs2)CC1` [compound 224], which “Biological activity (NF-κB inflammation assay, inhibition)” value is on record?
Its value is “+ (“+” stands for 50-80% inhibition)”.

Which “Biological activity (NF-κB inflammation assay, inhibition)” value does the source give for `O=C(O)C1=C(C(=O)N2CCC(c3nc(C(=O)N4CCN(c5cccc(C(F)(F)F)c5)CC4)cs3)CC2)CCC1` [compound 188] here?
Its value is “+ (“+” stands for 50-80% inhibition)”.

For `O=C(Cc1ccc(F)cc1)N1CCC(c2nc(C(=O)N3CCN(c4cccc(Cl)c4)CC3)cs2)CC1` [compound 238], which “Biological activity (NF-κB inflammation assay, inhibition)” value is on record?
The value was “+ (“+” stands for 50-80% inhibition)”.

How did the “Biological activity (NF-κB inflammation assay, inhibition)” value turn out when `O=C(C=Cc1ccccc1)N1CCC(c2nc(C(=O)N3CCN(c4cccc(C(F)(F)F)c4)CC3)cs2)CC1` [compound 214] was run?
The value was “++ (“++” means 80-90%)”.

Which “Biological activity (NF-κB inflammation assay, inhibition)” value does the source give for `O=C(c1csc(C2CCN(Cc3ccccc3OC(F)(F)F)CC2)n1)N1CCN(c2cccc(C(F)(F)F)c2)CC1` [compound 109] here?
The value was “+ (“+” stands for 50-80% inhibition)”.

With `O=C(c1csc(C2CCN(S(=O)(=O)c3ccc(F)cc3Cl)CC2)n1)N1CCN(c2cccc(C(F)(F)F)c2)CC1` [compound 195] as the molecule, how does the “Biological activity (NF-κB inflammation assay, inhibition)” value read?
Its value is “+ (“+” stands for 50-80% inhibition)”.

How did the “Biological activity (NF-κB inflammation assay, inhibition)” value turn out when `COc1cc(N2CCC(c3nc(C(=O)N4CCN(c5cccc(C(F)(F)F)c5)CC4)cs3)CC2)nc(OC)n1` [compound 164] was run?
The value was “++ (“++” means 80-90%)”.

Which “Biological activity (NF-κB inflammation assay, inhibition)” value does the source give for `O=C(c1ccc2nccnc2c1)N1CCC(c2nc(C(=O)N3CCN(c4cccc(C(F)(F)F)c4)CC3)cs2)CC1` [compound 211] here?
Its value is “+ (“+” stands for 50-80% inhibition)”.

Which “Biological activity (NF-κB inflammation assay, inhibition)” value does the source give for `O=C(c1csc(C2CCN(S(=O)(=O)c3cccs3)CC2)n1)N1CCN(c2cccc(C(F)(F)F)c2)CC1` [compound 194] here?
Its value is “+ (“+” stands for 50-80% inhibition)”.

How did the “Biological activity (NF-κB inflammation assay, inhibition)” value turn out when `O=C(O)c1ccc(C(=O)O)c(C(=O)N2CCC(c3nc(C(=O)N4CCN(c5cccc(C(F)(F)F)c5)CC4)cs3)CC2)c1` [compound 184] was run?
The value was “+ (“+” stands for 50-80% inhibition)”.

With `O=C(O)N1CCC(c2nc(C(=O)N3CCN(c4cccc(C(F)(F)F)c4)CC3)cs2)CC1` [compound 113] as the molecule, how does the “Biological activity (NF-κB inflammation assay, inhibition)” value read?
Its value is “+ (“+” stands for 50-80% inhibition)”.

With `O=C(c1csc(C2CCN(Cc3cc(C(F)(F)F)cc(C(F)(F)F)c3)CC2)n1)N1CCN(c2cccc(C(F)(F)F)c2)CC1` [compound 175] as the molecule, how does the “Biological activity (NF-κB inflammation assay, inhibition)” value read?
Its value is “+ (“+” stands for 50-80% inhibition)”.

`O=C(c1csc(C2CCN(Cc3cccc(OC(F)(F)F)c3)CC2)n1)N1CCN(c2cccc(C(F)(F)F)c2)CC1` [compound 115] was tested. Which “Biological activity (NF-κB inflammation assay, inhibition)” value did it give?
The value was “++ (“++” means 80-90%)”.

`CCCCN1CCN(C(=O)c2csc(C3CCN(C(=O)Cc4ccc(F)cc4)CC3)n2)CC1` [compound 231] was tested. Which “Biological activity (NF-κB inflammation assay, inhibition)” value did it give?
Its value is “+ (“+” stands for 50-80% inhibition)”.

`O=C(c1csc(C2CCN(C(=O)c3ccccc3OC(F)(F)F)CC2)n1)N1CCN(c2ncnc3nc[nH]c23)CC1` [compound 129] was tested. Which “Biological activity (NF-κB inflammation assay, inhibition)” value did it give?
Its value is “+ (“+” stands for 50-80% inhibition)”.

Which “Biological activity (NF-κB inflammation assay, inhibition)” value does the source give for `O=C(c1csc(C2CCN(C(=O)c3ccccc3OC(F)(F)F)CC2)n1)N1CCN(c2cccc(Cl)c2)CC1` [compound 151] here?
Its value is “+ (“+” stands for 50-80% inhibition)”.

same assay, conditions: compounds of formula (II); TNF-α stimulated reporter cells; test concentration not given

With `O=C(Nc1nc(C(=O)N2CCN(c3cccc(C(F)(F)F)c3)CC2)cs1)c1ccc(C(F)(F)F)c(F)c1` [compound 34] as the molecule, how does the “Biological activity (NF-κB inflammation assay, inhibition)” value read?
The value was “+++ (“+++” stands for 90-100% inhibition)”.

`O=C(c1csc(N2CCN(c3cccc(C(F)(F)F)c3)CC2)n1)N1CCN(c2cccc(C(F)(F)F)c2)CC1` [compound 67] was tested. Which “Biological activity (NF-κB inflammation assay, inhibition)” value did it give?
The value was “+ (“+” stands for 50-80% inhibition)”.

With `O=C(CCC1CCCC1)NCC1CCN(c2nc(C(=O)N3CCN(c4cccc(C(F)(F)F)c4)CC3)cs2)CC1` [compound 100] as the molecule, how does the “Biological activity (NF-κB inflammation assay, inhibition)” value read?
Its value is “+ (“+” stands for 50-80% inhibition)”.

Which “Biological activity (NF-κB inflammation assay, inhibition)” value does the source give for `COc1ccccc1N1CCN(C(=O)c2csc(NC(=O)c3ccccc3OC(F)(F)F)n2)CC1` [compound 44] here?
Its value is “++ (“++” means 80-90%)”.

With `O=C(c1csc(N2CCN(Cc3ccccc3)CC2)n1)N1CCN(C(c2ccccc2)c2ccccc2)CC1` [compound 71] as the molecule, how does the “Biological activity (NF-κB inflammation assay, inhibition)” value read?
The value was “+++ (“+++” stands for 90-100% inhibition)”.

With `O=C(c1cc(C(F)(F)F)cc(C(F)(F)F)c1)N1CCN(c2nc(C(=O)N3CCN(c4cccc(C(F)(F)F)c4)CC3)cs2)CC1` [compound 59] as the molecule, how does the “Biological activity (NF-κB inflammation assay, inhibition)” value read?
Its value is “+ (“+” stands for 50-80% inhibition)”.

How did the “Biological activity (NF-κB inflammation assay, inhibition)” value turn out when `O=C(Nc1nc(C(=O)N2CCN(c3ccc(Cl)c(Cl)c3)CC2)cs1)c1ccccc1OC(F)(F)F` [compound 41] was run?
Its value is “+++ (“+++” stands for 90-100% inhibition)”.

How did the “Biological activity (NF-κB inflammation assay, inhibition)” value turn out when `N#Cc1ccc(C(=O)NCC2CCN(c3nc(C(=O)N4CCN(c5cccc(C(F)(F)F)c5)CC4)cs3)CC2)cc1` [compound 102] was run?
Its value is “+ (“+” stands for 50-80% inhibition)”.

`CC(C)(C)OC(=O)N1CCN(c2nc(C(=O)N3CCN(c4cccc(C(F)(F)F)c4)CC3)cs2)CC1` [compound 63] was tested. Which “Biological activity (NF-κB inflammation assay, inhibition)” value did it give?
The value was “++ (“++” means 80-90%)”.

`O=C(CCC1CCCC1)Nc1nc(C(=O)N2CCN(c3cccc(C(F)(F)F)c3)CC2)cs1` [compound 33] was tested. Which “Biological activity (NF-κB inflammation assay, inhibition)” value did it give?
Its value is “+++ (“+++” stands for 90-100% inhibition)”.

With `O=C(NCC1CCN(c2nc(C(=O)N3CCN(c4cccc(C(F)(F)F)c4)CC3)cs2)CC1)c1ccc(C(F)(F)F)c(F)c1` [compound 99] as the molecule, how does the “Biological activity (NF-κB inflammation assay, inhibition)” value read?
Its value is “+ (“+” stands for 50-80% inhibition)”.

same assay, conditions: compounds of formula (Ia); TNF-α stimulated reporter cells; test concentration not given

How did the “Biological activity (NF-κB inflammation assay, inhibition)” value turn out when `O=C(Nc1ccccc1)N1CCC(c2nc(C(=O)N3CCN(c4cccc(C(F)(F)F)c4)CC3)cs2)CC1` [compound 134] was run?
Its value is “+ (“+” stands for 50-80% inhibition)”.

`COc1cccc(NC(=O)N2CCC(c3nc(C(=O)N4CCN(c5cccc(C(F)(F)F)c5)CC4)cs3)CC2)c1` [compound 80] was tested. Which “Biological activity (NF-κB inflammation assay, inhibition)” value did it give?
The value was “+ (“+” stands for 50-80% inhibition)”.

With `CC(C)NC(=O)N1CCC(c2nc(C(=O)N3CCN(c4cccc(C(F)(F)F)c4)CC3)cs2)CC1` [compound 78] as the molecule, how does the “Biological activity (NF-κB inflammation assay, inhibition)” value read?
Its value is “+ (“+” stands for 50-80% inhibition)”.

How did the “Biological activity (NF-κB inflammation assay, inhibition)” value turn out when `O=C(Nc1ccccc1OC(F)(F)F)N1CCC(c2nc(C(=O)N3CCN(c4cccc(C(F)(F)F)c4)CC3)cs2)CC1` [compound 79] was run?
Its value is “+++ (“+++” stands for 90-100% inhibition)”.

same assay, conditions: compounds of formula (Ic); TNF-α stimulated reporter cells; test concentration not given

`COc1cc2c(cc1OC)CN(C(=O)c1csc(C3CCN(C(=O)Cc4ccc(F)cc4)CC3)n1)CC2` [compound 161] was tested. Which “Biological activity (NF-κB inflammation assay, inhibition)” value did it give?
The value was “+ (“+” stands for 50-80% inhibition)”.

For `COc1cc2c(cc1OC)C(C)N(C(=O)c1csc(C3CCN(C(=O)Cc4ccc(F)cc4)CC3)n1)CC2` (stereo not shown) [compound 234], which “Biological activity (NF-κB inflammation assay, inhibition)” value is on record?
Its value is “+ (“+” stands for 50-80% inhibition)”.

`CC1c2cc(O)c(O)cc2CCN1C(=O)c1csc(C2CCN(C(=O)Cc3ccc(F)cc3)CC2)n1` (stereo not shown) [compound 233] was tested. Which “Biological activity (NF-κB inflammation assay, inhibition)” value did it give?
The value was “+ (“+” stands for 50-80% inhibition)”.
